# Assay results taken from publication PMC2363616, “Mapping the HLA-A24-restricted T-cell epitope peptide from a tumour-associated antigen HER2 / neu: possible immunotherapy for colorectal carcinomas” (British Journal of Cancer, 2001).
# Test system: CD8+ T cells of HLA-A24 healthy donors
# Test: Primary CTL induction with peptide-pulsed autologous DCs, cytotoxicity tested on peptide-pulsed TISI
# Type: cell-based, human
# Details: data not shown
structure (smiles),measurement,value
CC(C)C[C@H](NC(=O)[C@H](CC(C)C)NC(=O)[C@H](C)NC(=O)[C@H](CC(C)C)NC(=O)[C@H](CC(C)C)NC(=O)[C@H](CC(C)C)NC(=O)CNC(=O)[C@H](Cc1c[nH]c2ccccc12)NC(=O)[C@@H](N)CCCNC(=N)N)C(=O)O [HE1],CTL induction activity (cytotoxicity of peptide-stimulated CTLs against the peptide-pulsed TISI),showed the cytotoxicity against the peptide- pulsed TISI
